Reference: ChEMBL document CHEMBL1759974, “Discovery of triazine-benzimidazoles as selective inhibitors of mTOR” (Bioorg Med Chem Lett, 2011)

What was measured:
[1] = biological target: T1, Serine/threonine-protein kinase mTOR (Homo sapiens, UniProt P42345)
Description: Inhibition of mTOR in human U-87 cells assessed as inhibition of phosphorylation of AKT at S473

[2] = biological target: T1, Serine/threonine-protein kinase mTOR; remark: listed apart in the source
[3] = biological target: Phosphatidylinositol 4,5-bisphosphate 3-kinase catalytic subunit gamma isoform (Homo sapiens, UniProt P48736)
[4] = biological target: T2, Phosphatidylinositol 4,5-bisphosphate 3-kinase catalytic subunit delta isoform (Homo sapiens, UniProt O00329)
T2 sequence (O00329 whole entry): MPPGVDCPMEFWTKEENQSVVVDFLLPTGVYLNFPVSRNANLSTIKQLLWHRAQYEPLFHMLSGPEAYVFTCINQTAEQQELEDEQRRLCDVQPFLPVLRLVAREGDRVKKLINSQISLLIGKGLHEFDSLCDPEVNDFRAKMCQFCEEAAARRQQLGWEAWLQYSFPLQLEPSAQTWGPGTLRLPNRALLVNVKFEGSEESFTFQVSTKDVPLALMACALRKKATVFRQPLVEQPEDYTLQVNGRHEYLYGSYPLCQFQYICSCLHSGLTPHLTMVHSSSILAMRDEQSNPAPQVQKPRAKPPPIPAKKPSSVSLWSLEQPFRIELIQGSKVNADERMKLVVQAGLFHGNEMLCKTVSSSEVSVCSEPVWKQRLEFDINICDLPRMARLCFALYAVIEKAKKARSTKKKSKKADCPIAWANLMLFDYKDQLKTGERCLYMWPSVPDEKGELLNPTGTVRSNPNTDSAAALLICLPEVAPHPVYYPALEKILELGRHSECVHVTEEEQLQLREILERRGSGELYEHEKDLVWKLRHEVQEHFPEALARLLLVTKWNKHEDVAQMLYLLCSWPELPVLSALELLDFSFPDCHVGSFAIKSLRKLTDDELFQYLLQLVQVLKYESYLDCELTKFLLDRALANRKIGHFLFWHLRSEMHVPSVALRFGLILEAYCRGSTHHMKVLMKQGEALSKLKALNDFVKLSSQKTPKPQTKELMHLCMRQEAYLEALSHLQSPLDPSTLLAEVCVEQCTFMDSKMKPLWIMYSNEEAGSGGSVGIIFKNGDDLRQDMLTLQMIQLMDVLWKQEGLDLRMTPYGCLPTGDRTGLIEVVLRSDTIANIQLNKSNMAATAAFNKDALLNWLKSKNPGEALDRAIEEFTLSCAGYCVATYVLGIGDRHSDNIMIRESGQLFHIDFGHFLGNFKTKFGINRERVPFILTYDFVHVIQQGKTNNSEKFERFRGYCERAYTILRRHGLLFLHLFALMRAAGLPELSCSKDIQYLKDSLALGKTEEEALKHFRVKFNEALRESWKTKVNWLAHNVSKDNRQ

[5] = biological target: T1, Serine/threonine-protein kinase mTOR; remark: listed apart in the source
[6] = biological target: Phosphatidylinositol 4,5-bisphosphate 3-kinase catalytic subunit alpha isoform (Homo sapiens, UniProt P42336)
[7] = biological target: Phosphatidylinositol 4,5-bisphosphate 3-kinase catalytic subunit beta isoform (Homo sapiens, UniProt P42338)
Chain of Phosphatidylinositol 4,5-bisphosphate 3-kinase catalytic subunit beta isoform (P42338 whole entry, canonical isoform): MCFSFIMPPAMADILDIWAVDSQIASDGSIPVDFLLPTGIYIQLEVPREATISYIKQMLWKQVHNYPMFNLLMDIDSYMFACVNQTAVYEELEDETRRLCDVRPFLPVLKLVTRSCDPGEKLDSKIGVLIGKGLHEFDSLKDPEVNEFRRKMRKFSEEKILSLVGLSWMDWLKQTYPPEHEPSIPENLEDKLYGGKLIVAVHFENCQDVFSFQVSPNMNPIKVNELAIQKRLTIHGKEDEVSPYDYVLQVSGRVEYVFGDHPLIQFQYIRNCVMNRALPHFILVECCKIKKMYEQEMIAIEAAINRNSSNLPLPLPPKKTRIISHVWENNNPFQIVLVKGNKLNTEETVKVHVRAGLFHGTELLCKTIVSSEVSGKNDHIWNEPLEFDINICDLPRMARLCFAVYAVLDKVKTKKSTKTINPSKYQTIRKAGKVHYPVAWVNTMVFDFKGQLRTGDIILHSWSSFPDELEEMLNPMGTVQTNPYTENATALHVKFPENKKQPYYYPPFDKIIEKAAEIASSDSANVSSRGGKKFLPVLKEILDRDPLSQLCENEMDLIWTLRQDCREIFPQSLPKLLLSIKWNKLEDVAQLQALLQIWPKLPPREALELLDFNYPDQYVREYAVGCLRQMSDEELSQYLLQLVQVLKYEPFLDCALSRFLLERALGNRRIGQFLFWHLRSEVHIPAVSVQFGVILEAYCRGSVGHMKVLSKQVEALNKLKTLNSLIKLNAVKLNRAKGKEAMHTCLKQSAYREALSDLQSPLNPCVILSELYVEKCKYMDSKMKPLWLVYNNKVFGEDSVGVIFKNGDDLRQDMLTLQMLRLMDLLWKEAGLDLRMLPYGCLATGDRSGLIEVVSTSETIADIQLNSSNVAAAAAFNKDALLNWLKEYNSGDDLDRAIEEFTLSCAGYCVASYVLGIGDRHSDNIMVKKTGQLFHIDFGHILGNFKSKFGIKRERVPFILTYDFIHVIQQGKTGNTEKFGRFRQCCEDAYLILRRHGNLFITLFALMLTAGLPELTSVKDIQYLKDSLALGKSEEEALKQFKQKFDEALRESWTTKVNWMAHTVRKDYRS

Chain of Phosphatidylinositol 4,5-bisphosphate 3-kinase catalytic subunit gamma isoform (P48736 whole entry, canonical isoform): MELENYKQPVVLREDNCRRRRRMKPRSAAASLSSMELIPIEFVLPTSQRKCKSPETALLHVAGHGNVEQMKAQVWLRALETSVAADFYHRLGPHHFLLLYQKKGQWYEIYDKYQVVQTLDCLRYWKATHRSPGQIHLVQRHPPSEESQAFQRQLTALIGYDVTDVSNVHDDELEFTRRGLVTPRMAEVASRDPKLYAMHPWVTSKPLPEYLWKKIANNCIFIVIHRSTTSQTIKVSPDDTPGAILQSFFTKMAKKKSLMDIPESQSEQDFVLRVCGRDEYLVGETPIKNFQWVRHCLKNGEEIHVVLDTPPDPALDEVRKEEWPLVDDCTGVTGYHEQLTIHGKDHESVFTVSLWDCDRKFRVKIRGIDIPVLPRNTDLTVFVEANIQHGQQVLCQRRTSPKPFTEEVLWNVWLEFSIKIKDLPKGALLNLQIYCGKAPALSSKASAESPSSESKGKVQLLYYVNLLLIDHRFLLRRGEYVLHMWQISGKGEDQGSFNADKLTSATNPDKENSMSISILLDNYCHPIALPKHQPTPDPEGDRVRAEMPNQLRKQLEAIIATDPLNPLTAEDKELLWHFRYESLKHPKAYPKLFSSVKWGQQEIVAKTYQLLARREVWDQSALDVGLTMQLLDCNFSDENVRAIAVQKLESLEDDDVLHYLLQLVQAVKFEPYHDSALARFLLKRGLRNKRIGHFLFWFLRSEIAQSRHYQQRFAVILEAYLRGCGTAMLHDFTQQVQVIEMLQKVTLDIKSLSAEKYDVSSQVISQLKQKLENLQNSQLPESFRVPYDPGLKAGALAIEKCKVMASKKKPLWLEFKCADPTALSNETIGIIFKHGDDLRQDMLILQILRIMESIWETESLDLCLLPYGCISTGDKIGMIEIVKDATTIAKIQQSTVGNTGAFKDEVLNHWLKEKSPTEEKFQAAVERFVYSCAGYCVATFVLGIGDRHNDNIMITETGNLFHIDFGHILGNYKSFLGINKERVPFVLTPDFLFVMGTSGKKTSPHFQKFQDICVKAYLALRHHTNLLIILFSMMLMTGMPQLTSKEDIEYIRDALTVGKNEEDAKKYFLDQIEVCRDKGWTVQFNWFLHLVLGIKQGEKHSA
Chain of Phosphatidylinositol 4,5-bisphosphate 3-kinase catalytic subunit alpha isoform (P42336 whole entry, canonical isoform): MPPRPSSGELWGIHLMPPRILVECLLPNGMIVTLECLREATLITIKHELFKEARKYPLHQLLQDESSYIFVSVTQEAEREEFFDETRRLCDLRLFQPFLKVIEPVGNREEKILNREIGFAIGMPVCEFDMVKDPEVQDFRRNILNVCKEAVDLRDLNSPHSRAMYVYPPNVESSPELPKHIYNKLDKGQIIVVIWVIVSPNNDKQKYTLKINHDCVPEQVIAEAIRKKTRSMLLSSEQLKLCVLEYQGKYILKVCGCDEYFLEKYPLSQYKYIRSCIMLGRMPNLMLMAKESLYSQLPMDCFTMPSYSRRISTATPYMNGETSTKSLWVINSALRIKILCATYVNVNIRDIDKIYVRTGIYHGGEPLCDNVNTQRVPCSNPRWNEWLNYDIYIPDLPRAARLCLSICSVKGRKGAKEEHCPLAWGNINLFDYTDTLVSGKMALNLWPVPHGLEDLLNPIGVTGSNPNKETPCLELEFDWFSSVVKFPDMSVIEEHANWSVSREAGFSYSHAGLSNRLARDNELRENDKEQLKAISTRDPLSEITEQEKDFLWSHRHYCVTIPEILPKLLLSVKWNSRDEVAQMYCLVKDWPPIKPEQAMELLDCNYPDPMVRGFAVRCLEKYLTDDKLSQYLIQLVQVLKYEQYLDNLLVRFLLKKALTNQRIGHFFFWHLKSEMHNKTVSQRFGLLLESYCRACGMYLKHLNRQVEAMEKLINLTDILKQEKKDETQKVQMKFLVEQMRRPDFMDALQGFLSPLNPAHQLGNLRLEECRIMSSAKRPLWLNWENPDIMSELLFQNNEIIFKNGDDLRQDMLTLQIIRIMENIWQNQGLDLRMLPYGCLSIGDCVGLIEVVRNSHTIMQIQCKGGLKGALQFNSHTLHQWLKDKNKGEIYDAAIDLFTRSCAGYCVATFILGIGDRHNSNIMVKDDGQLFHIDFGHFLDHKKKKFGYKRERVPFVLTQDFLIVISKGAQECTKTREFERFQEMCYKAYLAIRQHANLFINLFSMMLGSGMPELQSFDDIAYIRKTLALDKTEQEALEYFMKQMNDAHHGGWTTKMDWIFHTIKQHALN

| Structure (SMILES) | IC50 [1] | IC50 [2] | IC50 [3] | IC50 [4] | IC50 [5] | IC50 [6] | IC50 [7] |
| --- | --- | --- | --- | --- | --- | --- | --- |
| Cc1nc(N)nc(-n2c(Nc3cccc(C(N)=O)c3)nc3ccccc32)n1 | 190 nM | 175 nM | 480 nM | 40 nM | 3900 nM | 290 nM | 1030 nM |
| CCCc1nc(N)nc(-n2c(Nc3cccc(O)c3)nc3ccccc32)n1 | 2640 nM | 4700 nM | – | – | > 25000 nM | 3500 nM | – |
| Cc1nc(N)cc(-n2c(Nc3cccc(O)c3)nc3ccccc32)n1 | 43 nM | 87 nM | – | – | 1200 nM | 42 nM | – |
| Cc1nc(N)nc(-n2c(Nc3ccc4cn[nH]c4c3)nc3ccccc32)n1 | 120 nM | 27 nM | 200 nM | 320 nM | 1500 nM | 200 nM | 630 nM |
| CNc1ncnc(-n2c(Nc3cccc(O)c3)nc3ccccc32)n1 | 180 nM | 250 nM | – | – | 2900 nM | 190 nM | – |
| CNC(=O)c1ccc(Nc2nc3ccccc3n2-c2nc(C)nc(N)n2)o1 | 680 nM | 150 nM | 26 nM | 140 nM | > 25000 nM | 520 nM | 1800 nM |
| Cc1nc(N)nc(-n2c(Nc3ccn(C)n3)nc3ccccc32)n1 | 580 nM | 270 nM | 4100 nM | 4600 nM | 5300 nM | 6200 nM | 28800 nM |
| Oc1cccc(Nc2nc3ccccc3n2-c2ncnc(NCC(F)(F)F)n2)c1 | 3200 nM | > 50000 nM | – | – | > 25000 nM | 3600 nM | – |
| Cc1nc(N)nc(-n2c(Nc3ccccc3)nc3ccccc32)n1 | 190 nM | 420 nM | 470 nM | 360 nM | > 25000 nM | 260 nM | 1000 nM |
| Nc1ncnc(-n2c(Nc3cccc(O)c3)nc3ccccc32)n1 | 34 nM | 21 nM | – | – | 710 nM | 130 nM | – |
| Oc1cccc(Nc2nc3ccccc3n2-c2ncnc(NCc3ccccn3)n2)c1 | 2400 nM | 21000 nM | – | – | > 25000 nM | 3600 nM | – |
| Cc1nc(N)nc(-n2c(Nc3nc[nH]n3)nc3ccccc32)n1 | 4600 nM | 33100 nM | – | – | > 25000 nM | – | – |
| Cc1nc(N)nc(-n2c(Nc3cc(O)cc(O)c3)nc3ccccc32)n1 | 5 nM | 0.2 nM | 5 nM | 0.4 nM | 97 nM | 0.6 nM | 0.2 nM |
| Cc1nc(N)nc(-n2c(Nc3ccnn3C)nc3ccccc32)n1 | 540 nM | > 50000 nM | 2300 nM | 3300 nM | > 25000 nM | 1900 nM | 6900 nM |
| C#CCNc1nc(C)nc(-n2c(Nc3ccn[nH]3)nc3ccccc32)n1 | 150 nM | 80 nM | 3700 nM | 4600 nM | 1400 nM | 4000 nM | 3700 nM |
| Cc1nc(N)nc(-n2c(Nc3ccc4cc[nH]c4c3)nc3ccccc32)n1 | 140 nM | 28 nM | 340 nM | 240 nM | 960 nM | 230 nM | 1000 nM |
| COc1nc(NCC#N)nc(-n2c(Nc3cccc(O)c3)nc3ccccc32)n1 | 2100 nM | > 50000 nM | – | – | 21500 nM | 520 nM | – |
